According to PMC8305076, “Comprehensive Evaluation of Biological Effects of Pentathiepins on Various Human Cancer Cell Lines and Insights into Their Mode of Action” (International Journal of Molecular Sciences, 2021):
Read-outs that look alike come from different tables or passages of the source.

Experiments:
bovine erythrocyte GPx1 = molecular target: T1, bovine erythrocyte GPx1 (Bos taurus, UniProt P00435); experiment: GPx1 enzyme activity assay (NADPH-coupled, t-BHP substrate); assay type: biochemical; parameters: key to GPx1 inhibition: no impact (0); weak impact (+); strong impact (++); settings: for IC50: n ≥ 3; for GPx1 inhibition: summary grade
T1 construct: the isolated enzyme from bovine erythrocytes; purchased Sigma-Aldrich (Taufkirchen, Germany); host or cells: isolated from bovine erythrocytes
T1 sequence (P00435 1-205): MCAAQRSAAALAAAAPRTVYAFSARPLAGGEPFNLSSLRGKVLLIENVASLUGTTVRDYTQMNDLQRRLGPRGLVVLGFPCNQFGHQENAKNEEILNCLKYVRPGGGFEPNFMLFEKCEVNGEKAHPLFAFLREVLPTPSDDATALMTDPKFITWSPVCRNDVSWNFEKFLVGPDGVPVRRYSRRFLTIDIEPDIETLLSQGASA
Text: The inhibition of GPx1 by pentathiepins has already been reported by us previously. […] The resulting glutathione disulfide (GSSG) was reduced back to GSH by glutathione reductase (GR), thereby converting NADPH to NADP^+, which can be photometrically monitored at λ = 340 nm. The rate of NADPH consumption was used to quantify GPx1 enzyme activity. Dose-response graphs are presented in Figure 5a, and the corresponding IC50 values in Table 1. Relative IC50 describing the half-maximal inhibition of the enzyme were derived from the inflection point of the sigmoidal shaped graphs. Absolute IC50 was calculated via interpolation of the standard curve resulting in the concentration at which 50% of the GPx1 was inhibited.
The potential of the pentathiepins to inhibit the GPx1 was assessed with an enzymatic assay as described previously. It is based on the catalytic cycle of the enzyme coupled to an NADPH detection reaction. Here, a bovine erythrocyte GPx1 with a sequence similarity of 87% to the human homolog was used for reasons of affordability. The GPx1 was treated with either vehicle (solvent DMF) or the respective pentathiepin, and the reaction started by addition of tert-butylhydroperoxide (t-BHP). For the assay, all solutions were prepared with potassium phosphate buffer (50 mM, pH 7.4, EDTA 1.1 mM, Triton-X 0.01%), except for the inhibitors and t-BHP, which were diluted in DMF or water, respectively. First, 180 µL of a 0.125 U/mL GPx1 solution and 30 µL of a serial dilution of the putative inhibitor dissolved in DMF were added in triplicate to the wells of a UV-transparent 96-well plate. As a negative control, only DMF was appliedat the same dilution as the inhibitor solution.. All reagents including the GPx1 solution were pipetted. Then, 30 µL of a GSH solution (2.5 mM) and 30 µL of a GR/NADPH solution (2 U/mL; 2.0 mM) were added per well. The reaction was started by adding 30 µL of a t-BHP solution (5.0 mM). […] GPx1 activity was indirectly measured by monitoring the decrease of NADPH at λ = 340 nm for 30 min every 15 s at room temperature. The GPx1 activity of the treated samples was related to the solvent treated control and the relative activities analyzed in Prism 7 (GraphPad) via dose–response graphs and the calculation of the inflection point corresponding to the relative IC50 (half-maximal inhibitory concentration). The relative IC50 corresponds to the concentration at which half of the effect of the test compound is achieved. An absolute IC50, where 50% of the enzyme is inhibited, was calculated via interpolation of the sigmoidal graph.

GR/CAT = GR/CAT inhibition (summary of off-target assays); assay type: biochemical; parameters: key: no impact (0); weak impact (+); strong impact (++); settings: summary grade
Method: To assess the specificity of inhibitors toward the GPx1, we performed enzymatic assays with other relevant antioxidant enzymes. These included the glutathione reductase (GR; yeast-derived), which is an auxiliary component of the GPx1 assay, and catalase (CAT; bovine), a key redox enzyme that fulfils a similar enzymatic task as the GPx1 by detoxifying hydrogen peroxide. None of the pentathiepins altered the activity of either enzyme at a concentration of 25 µM (Figure 5b,c).
Off-target assays were conducted to assess the specificity of the pentathiepins for inhibiting the GPx1; these were the activities of GR and CAT (from bovine liver) that have previously been described. As the baker’s yeast GR is an important component in the GPx assay, its inhibition by pentathiepins had to be excluded. A fixed pentathiepin concentration of 25 µM was tested in triplicate, following the same principle as mentioned before, by monitoring the consumption of NADPH by the GR at λ = 340 nm while GSSG is reduced back to GSH. All assay components were prepared in potassium phosphate buffer (50 mM, pH 7.4, 1.1 mM EDTA, 0.01% Triton-X solution), except for the inhibitor that was diluted in DMF. Subsequently, 180 µL of buffer was added per well followed by 30 µL of a 2.0 U/mL GR solution, 30 µL of a 2.0 mM NADPH solution, and 30 µL of a 250 µM pentathiepin solution or 30 µL of DMF as negative control. Finally, to start the reaction, 30 µL of a 2.5 mM GSSG solution was added, resulting in final concentrations of 0.2 U/mL of GR, 0.2 mM of NADPH, 25 µM of pentathiepin, and 0.25 mM of GSSG. After measuring the decrease of NADPH every 15 s for 30 min at room temperature, the relative inhibition of the GR was calculated by relating the activity of the pentathiepin-treated samples to the negative control.
The CAT activity assay is based on the principle that in the presence of H2O2 and heat, and dichromate in acetic acid is reduced to chromic acetate via perchromic acid as unstable intermediate. Here, the amount of chromic acetate is measured twice, once directly after adding H2O2 (t0min) and once again after the CAT (bovine origin) split the H2O2 for a period of 10 min (t10min) in the presence or absence of a putative inhibitor. Samples in this assay included a blank (+CAT/+DMF/−H2O2), a H2O2 standard (−CAT/+DMF/+H2O2), a negative control (+CAT/+DMF/+H2O2), and the test conditions (+CAT/+25 µM pentathiepin/+H2O2). For each condition, 3.0 mL of 0.002 mg/mL CAT in potassium phosphate buffer (50 mM, pH 7.4, EDTA 1.1 mM, Triton-X 0.01%) were prepared in a glass tube. Additionally, two tubes were prepared per condition each containing 2 mL of a reagent containing 1 part of an aqueous solution of K2Cr2O7 (5%) and 2 parts glacial acetic acid. Subsequently, the solvent or inhibitors were added, and the tubes placed on a shaker for 5 min. To start the reaction, 61.8 µL of a 30% H2O2 solution was added and then mixed, and immediately 1 mL was transferred to one tube containing the K2Cr2O7/acetic acid solution (t0min). The remaining 2 mL was incubated on a shaker for 10 min, and then the previous step was repeated (t10min). Finally, all tubes were boiled in a water bath and cooled down to room temperature, and then absorbance was measured at λ = 570 nm and the instrument was blanked with the blank solution. The difference in absorbance between t0min and t10min was calculated, and all samples were related to the negative control.

[1] = absolute IC50 (interpolation, 50% of GPx1 inhibited), read-out: Abs. IC50 (SD)
[2] = relative IC50 (inflection point of dose-response graph), t-BHP substrate, read-out: Rel. IC50 (CI 95%)
[3] = residual GPx1 activity at highest tested concentration of 12.5 µM

IC50 (bovine erythrocyte GPx1; [1]) [nM]	IC50 (bovine erythrocyte GPx1; [2]) [nM]	remaining activity at 12.5 µM (bovine erythrocyte GPx1; [3]) [%]	Residual Activity (%) (bovine erythrocyte GPx1; residual GPx1 activity at highest tested concentration of 12.5 µM, 12.5 µM)	GPx1 inhibition (bovine erythrocyte GPx1)	decrease of the activity of the bovine GPx (bovine erythrocyte GPx1; at 12.5 µM) [%]	SMILES	GR/CAT inhibition (GR/CAT)
1170	630	28.7		++		CCOc1c2c(c3ccc(C(=O)N4CCN(C(=O)c5ccc(F)cc5)CC4)cn13)SSSSS2 [Compound 5, (6-Ethoxy-[1,2,3,4,5]pentathiepino[6,7-a]indolizin-9-yl)(4-(4-fluorobenzoyl)piperazinyl)methanone]	0
> 12500	> 12500	53.3		0	≤ 50	CCOc1c2c(c3ccc(C(=O)N4CCN(S(=O)(=O)c5ccc(C)cc5)CC4)cn13)SSSSS2 [Compound 6, (6-Ethoxy-[1,2,3,4,5]pentathiepino[6,7-a]indolizin-9-yl)(4-tosylpiperazinyl)methanone]	0

The next lines start with the compound.

SMILES	IC50 (bovine erythrocyte GPx1; [1]) [nM]	IC50 (bovine erythrocyte GPx1; [2]) [nM]	remaining activity at 12.5 µM (bovine erythrocyte GPx1; [3]) [%]	Residual Activity (%) (bovine erythrocyte GPx1; residual GPx1 activity at highest tested concentration of 12.5 µM, 12.5 µM)	GPx1 inhibition (bovine erythrocyte GPx1)	decrease of the activity of the bovine GPx (bovine erythrocyte GPx1; at 12.5 µM) [%]	GR/CAT inhibition (GR/CAT)
CCOc1c2c(c3cnc4[nH]c(-c5ccc(OC)cc5)cc4n13)SSSSS2 [Compound 1, 11-Ethoxy-2-(4-methoxyphenyl)-3H-[1,2,3,4,5]pentathiepino[6′,7′:3,4]pyrrolo[1,2-a]pyrrolo[2,3-e]pyrazine]	1490	920	16	16.4	++		0
CCOc1c2c(c3ccc(C(=O)N4CCCCC4)cn13)SSSSS2 [Compound 2, (6-Ethoxy-[1,2,3,4,5]pentathiepino[6,7-a]indolizin-9-yl)(piperidinyl)methanone]	3250	2280	27.5		+		0
CCOc1c2c(c3ccc(C(=O)N4CCOCC4)cn13)SSSSS2 [Compound 3, (6-Ethoxy-[1,2,3,4,5]pentathiepino[6,7-a]indolizin-9-yl)(morpholino)methanone]	910	560	29		++		0
CCOc1c2c(c3ccc(C(=O)N(CC)CC)cn13)SSSSS2 [Compound 4, 6-Ethoxy-N,N’-diethyl-[1,2,3,4,5]pentathiepino[6,7-a]indolizine-9-carboxamide]	750	600	27.9		++		0
